Reference: ChEMBL document CHEMBL2380240, “Discovery, synthesis, selectivity modulation and DMPK characterization of 5-azaspiro[2.4]heptanes as potent orexin receptor antagonists” (Bioorg Med Chem Lett, 2013)

What was measured:
[1] = target: T1, CYP3A4 (Homo sapiens, UniProt P08684); assay: Inhibition of human recombinant CYP3A4 using BFC as substrate at 3 uM by fluorimetric assay; type: ADME; conditions: recombinant CYP3A4, probe BFC
[2] = target: T2, CYP2D6 (Homo sapiens, UniProt P10635); assay: Inhibition of human recombinant CYP2D6 at 3 uM by fluorimetric assay; type: ADME
[3] = Oral bioavailability in rat at 1 mg/kg; type: ADME, organism-based; conditions: in vivo
[4] = Plasma clearance in rat at 1 mg/kg, iv; type: ADME, organism-based; design: dose 1 mg/kg, route intravenous
[5] = Ratio of drug uptake from rat brain to plasma at 1 mg/kg, iv after 1 hr; type: ADME, organism-based; design: dose 1 mg/kg, route intravenous; conditions: read-out: BPR
[6] = target: T3, CYP2C19 (Homo sapiens, UniProt P33261); assay: Inhibition of human recombinant CYP2C19 at 3 uM by fluorimetric assay; type: ADME
[7] = target: T4, CYP2C9 (Homo sapiens, UniProt P11712); assay: Inhibition of human recombinant CYP2C9 at 3 uM by fluorimetric assay; type: ADME
[8] = target: T5, Cytochrome P450 3A4 (Homo sapiens, UniProt P08684); assay: Time dependent inhibition of human recombinant CYP3A4 using BFC as substrate incubated for 30 mins prior to substrate addition; type: ADME; conditions: recombinant enzyme, 0.5 h
[9] = target: T5, Cytochrome P450 3A4; assay: Inhibition of human recombinant CYP3A4 using BFC as substrate by fluorimetric assay; type: ADME
[10] = target: T6, CYP1A2 (Homo sapiens, UniProt P05177); assay: Inhibition of human recombinant CYP1A2 at 3 uM by fluorimetric assay; type: ADME
T6 sequence (P05177 whole entry): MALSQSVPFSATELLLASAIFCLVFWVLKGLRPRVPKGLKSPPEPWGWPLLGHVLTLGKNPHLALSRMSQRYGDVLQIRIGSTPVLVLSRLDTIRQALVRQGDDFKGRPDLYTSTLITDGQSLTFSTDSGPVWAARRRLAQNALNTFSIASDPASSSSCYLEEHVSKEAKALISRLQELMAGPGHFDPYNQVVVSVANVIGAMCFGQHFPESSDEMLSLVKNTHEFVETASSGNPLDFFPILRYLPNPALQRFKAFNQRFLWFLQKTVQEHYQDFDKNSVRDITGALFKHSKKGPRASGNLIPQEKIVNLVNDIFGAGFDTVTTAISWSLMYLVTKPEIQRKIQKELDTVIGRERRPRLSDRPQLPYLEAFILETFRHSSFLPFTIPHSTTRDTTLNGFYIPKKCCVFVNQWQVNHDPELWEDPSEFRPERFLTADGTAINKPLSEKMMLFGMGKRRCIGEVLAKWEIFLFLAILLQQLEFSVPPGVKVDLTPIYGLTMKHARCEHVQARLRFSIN

[11] = target: T1, CYP3A4; assay: Inhibition of human recombinant CYP3A4 using DBF as substrate at 3 uM by fluorimetric assay; type: ADME; conditions: recombinant CYP3A4, probe DBF
[12] = target: T7, Orexin receptor type 2 (Homo sapiens) (UniProt O43614); assay: Antagonist activity at human recombinant OX2 receptor expressed in HEK293 cells assessed as OXB-stimulated intracellular calcium mobilization by FLIPR assay; type: functional, cell-based
T7 sequence (whole entry): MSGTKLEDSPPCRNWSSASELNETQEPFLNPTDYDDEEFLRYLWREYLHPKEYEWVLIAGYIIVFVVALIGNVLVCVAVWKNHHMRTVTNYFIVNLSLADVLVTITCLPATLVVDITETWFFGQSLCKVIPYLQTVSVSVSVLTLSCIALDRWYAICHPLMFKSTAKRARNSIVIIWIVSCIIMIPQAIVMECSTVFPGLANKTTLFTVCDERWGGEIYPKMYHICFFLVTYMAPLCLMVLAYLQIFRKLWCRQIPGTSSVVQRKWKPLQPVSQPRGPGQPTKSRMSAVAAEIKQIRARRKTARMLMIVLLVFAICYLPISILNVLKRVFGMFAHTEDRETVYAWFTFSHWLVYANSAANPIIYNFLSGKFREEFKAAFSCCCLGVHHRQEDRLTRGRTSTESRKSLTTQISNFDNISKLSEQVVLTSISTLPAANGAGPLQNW

[13] = Volume of distribution at steady state in rat; type: ADME, organism-based; conditions: in vivo, read-out: Vdss
[14] = target: T8, Orexin/Hypocretin receptor type 1 (Homo sapiens) (UniProt O43613); assay: Antagonist activity at human recombinant OX1 receptor expressed in CHO cells assessed as OXA-stimulated intracellular calcium mobilization by FLIPR assay; type: functional, cell-based
T8 sequence (whole entry): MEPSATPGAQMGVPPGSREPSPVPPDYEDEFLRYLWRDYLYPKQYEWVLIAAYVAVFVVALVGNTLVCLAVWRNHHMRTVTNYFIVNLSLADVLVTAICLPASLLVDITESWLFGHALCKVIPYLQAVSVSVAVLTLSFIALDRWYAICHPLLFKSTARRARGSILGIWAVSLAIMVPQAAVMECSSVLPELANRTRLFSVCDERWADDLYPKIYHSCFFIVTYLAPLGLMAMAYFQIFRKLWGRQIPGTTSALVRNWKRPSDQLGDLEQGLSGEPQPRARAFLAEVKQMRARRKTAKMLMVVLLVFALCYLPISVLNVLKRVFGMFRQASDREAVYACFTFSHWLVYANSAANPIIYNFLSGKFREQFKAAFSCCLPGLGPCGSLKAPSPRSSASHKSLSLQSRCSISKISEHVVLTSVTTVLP

[15] = target: T2, CYP2D6; assay: Inhibition of human recombinant CYP2D6 at 1 uM by fluorimetric assay; type: ADME
[16] = target: T1, CYP3A4; assay: Inhibition of human recombinant CYP3A4 using DBF as substrate at 1 uM by fluorimetric assay; type: ADME; conditions: recombinant CYP3A4, probe DBF
[17] = target: T1, CYP3A4; assay: Inhibition of human recombinant CYP3A4 using BFC as substrate at 1 uM by fluorimetric assay; type: ADME; conditions: recombinant CYP3A4, probe BFC
[18] = target: T3, CYP2C19; assay: Inhibition of human recombinant CYP2C19 at 1 uM by fluorimetric assay; type: ADME
[19] = target: T4, CYP2C9; assay: Inhibition of human recombinant CYP2C9 at 1 uM by fluorimetric assay; type: ADME
[20] = target: T6, CYP1A2; assay: Inhibition of human recombinant CYP1A2 at 1 uM by fluorimetric assay; type: ADME
[21] = organism: Homo sapiens; assay: Selectivity ratio for human recombinant OX1 to human recombinant OX2

T3 sequence (P33261 whole entry): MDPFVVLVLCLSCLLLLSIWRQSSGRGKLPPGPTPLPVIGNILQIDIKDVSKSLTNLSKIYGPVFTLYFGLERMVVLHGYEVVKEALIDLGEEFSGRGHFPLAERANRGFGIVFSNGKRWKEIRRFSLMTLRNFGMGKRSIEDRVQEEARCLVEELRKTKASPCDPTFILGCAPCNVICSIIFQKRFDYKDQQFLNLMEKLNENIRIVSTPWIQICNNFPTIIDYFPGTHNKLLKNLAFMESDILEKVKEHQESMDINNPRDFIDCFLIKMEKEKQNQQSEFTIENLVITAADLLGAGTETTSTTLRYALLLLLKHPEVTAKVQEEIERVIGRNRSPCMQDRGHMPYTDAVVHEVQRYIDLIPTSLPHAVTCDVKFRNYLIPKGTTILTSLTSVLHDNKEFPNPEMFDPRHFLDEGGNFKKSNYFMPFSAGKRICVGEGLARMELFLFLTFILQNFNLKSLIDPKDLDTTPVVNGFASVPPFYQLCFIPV
T1 sequence (P08684 whole entry): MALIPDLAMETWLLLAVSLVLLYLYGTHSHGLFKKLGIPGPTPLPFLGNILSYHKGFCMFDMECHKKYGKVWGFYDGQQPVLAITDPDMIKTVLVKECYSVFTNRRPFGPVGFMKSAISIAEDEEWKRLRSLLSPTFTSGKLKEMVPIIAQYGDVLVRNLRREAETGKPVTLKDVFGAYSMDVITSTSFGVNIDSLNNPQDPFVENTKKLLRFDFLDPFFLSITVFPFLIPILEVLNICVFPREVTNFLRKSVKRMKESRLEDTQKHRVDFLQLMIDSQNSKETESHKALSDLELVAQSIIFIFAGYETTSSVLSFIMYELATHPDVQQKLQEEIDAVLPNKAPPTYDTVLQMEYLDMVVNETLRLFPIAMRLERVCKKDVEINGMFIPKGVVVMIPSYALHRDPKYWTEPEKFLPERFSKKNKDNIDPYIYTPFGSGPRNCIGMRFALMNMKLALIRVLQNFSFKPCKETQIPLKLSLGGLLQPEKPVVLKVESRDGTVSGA
T5 sequence (P08684 whole entry): as above
T2 sequence (P10635 whole entry): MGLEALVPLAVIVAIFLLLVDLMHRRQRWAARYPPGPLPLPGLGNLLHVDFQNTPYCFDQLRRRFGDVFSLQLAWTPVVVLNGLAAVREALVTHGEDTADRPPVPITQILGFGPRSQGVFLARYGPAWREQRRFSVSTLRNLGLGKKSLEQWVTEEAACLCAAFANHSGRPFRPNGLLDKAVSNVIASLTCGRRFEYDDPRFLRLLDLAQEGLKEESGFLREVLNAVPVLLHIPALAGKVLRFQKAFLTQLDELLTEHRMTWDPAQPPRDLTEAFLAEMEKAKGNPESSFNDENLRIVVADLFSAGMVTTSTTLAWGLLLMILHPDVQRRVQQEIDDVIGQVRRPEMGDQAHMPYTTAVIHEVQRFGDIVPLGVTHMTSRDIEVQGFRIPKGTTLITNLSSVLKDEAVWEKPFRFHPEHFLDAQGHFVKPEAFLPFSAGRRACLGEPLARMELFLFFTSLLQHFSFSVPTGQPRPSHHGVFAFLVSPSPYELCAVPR
T4 sequence (P11712 whole entry): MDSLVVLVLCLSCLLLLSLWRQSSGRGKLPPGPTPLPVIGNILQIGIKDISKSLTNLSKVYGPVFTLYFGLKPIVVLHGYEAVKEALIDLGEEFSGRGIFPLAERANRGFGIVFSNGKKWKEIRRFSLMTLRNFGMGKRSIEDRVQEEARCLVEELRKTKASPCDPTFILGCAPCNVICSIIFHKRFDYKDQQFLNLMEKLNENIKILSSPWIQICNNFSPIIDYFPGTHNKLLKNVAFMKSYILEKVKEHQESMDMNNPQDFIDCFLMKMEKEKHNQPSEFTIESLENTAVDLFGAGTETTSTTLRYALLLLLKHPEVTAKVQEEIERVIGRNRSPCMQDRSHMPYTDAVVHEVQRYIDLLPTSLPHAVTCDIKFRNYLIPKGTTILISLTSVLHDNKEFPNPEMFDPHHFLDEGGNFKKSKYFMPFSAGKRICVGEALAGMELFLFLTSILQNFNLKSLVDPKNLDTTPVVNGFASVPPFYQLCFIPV

Question: For `Cc1ccc(-c2ncccn2)c(C(=O)N2CC3(CC3)C[C@H]2CNc2ccc(C(F)(F)F)cn2)n1`, which inhibition at 3 µM [1] is on record?
Answer: Its inhibition at 3 µM is less than 28%.

Question: What about the inhibition at 3 µM [2] of the same compound?
Answer: The inhibition at 3 µM was less than 28%.

Question: And the bioavailability [3]?
Answer: Its bioavailability is 33%.

Question: And the clearance [4]?
Answer: The clearance was 47.5 mL/min/kg.

Question: What about the Kp at 1 h [5] of the same compound?
Answer: Its Kp at 1 h is 0.5.

Question: And the inhibition at 3 µM [6]?
Answer: The inhibition at 3 µM was less than 28%.

Question: What about the inhibition at 3 µM [7] of the same compound?
Answer: Its inhibition at 3 µM is less than 28%.

Question: What about the “inhibition (INH)” value [8] of the same compound?
Answer: Its value is “Active”.

Question: What about the IC50 [9] of the same compound?
Answer: The IC50 was greater than 100 µM.

Question: And the inhibition at 3 µM [10]?
Answer: The inhibition at 3 µM was less than 28%.

Question: What about the inhibition at 3 µM [11] of the same compound?
Answer: The inhibition at 3 µM was less than 28%.

Question: And the pKb [12]?
Answer: The pKb was 7.5.

Question: What about the Vd [13] of the same compound?
Answer: The Vd was 2 L/kg.

Question: And the pKb [14]?
Answer: Its pKb is 8.4.

Question: Which inhibition at 3 µM [1] does the source give for `Cc1ccc(-c2ccccc2)c(C(=O)N2CC3(CC3)C[C@H]2CNc2ccc(C(F)(F)F)cn2)n1` here?
Answer: Its inhibition at 3 µM is less than 20%.

Question: What about the inhibition at 3 µM [2] of the same compound?
Answer: Its inhibition at 3 µM is less than 20%.

Question: What about the bioavailability [3] of the same compound?
Answer: Its bioavailability is 11%.

Question: What about the clearance [4] of the same compound?
Answer: Its clearance is 61.3 mL/min/kg.

Question: And the Kp at 1 h [5]?
Answer: Its Kp at 1 h is 0.4.

Question: And the inhibition at 3 µM [6]?
Answer: The inhibition at 3 µM was less than 20%.

Question: And the inhibition at 3 µM [7]?
Answer: Its inhibition at 3 µM is less than 20%.

Question: What about the “inhibition (INH)” value [8] of the same compound?
Answer: The value was “Not Active”.

Question: And the IC50 [9]?
Answer: The IC50 was 64 µM.

Question: What about the inhibition at 3 µM [10] of the same compound?
Answer: The inhibition at 3 µM was less than 20%.

Question: And the inhibition at 3 µM [11]?
Answer: Its inhibition at 3 µM is less than 20%.

Question: And the pKb [12]?
Answer: Its pKb is 8.

Question: And the Vd [13]?
Answer: Its Vd is 4.4 L/kg.

Question: And the pKb [14]?
Answer: The pKb was 8.6.

Question: What does the source list for `Cc1cc(C)nc(NC[C@@H]2CC3(CC3)CN2C(=O)c2nc(C)sc2-c2ccccc2)n1`?
Answer: clearance [4]: 41.4 mL/min/kg; inhibition at 1 µM [15]: < 16%; inhibition at 1 µM [16]: < 16%; Kp at 1 h [5]: 0.1; inhibition at 1 µM [17]: < 16%; inhibition (INH) [8]: Active; IC50 [9]: 7.9 µM; inhibition at 1 µM [18]: < 16%; pKb [12]: 8.6; Vd [13]: 0.7 L/kg; inhibition at 1 µM [19]: < 16%; pKb [14]: 7.5; inhibition at 1 µM [20]: < 16%

Question: With `Cc1ccc(-c2ncccn2)c(C(=O)N2CC3(CC3)C[C@H]2CNc2ccc(Cl)cn2)c1` as the compound, how does the bioavailability [3] read?
Answer: Its bioavailability is 40%.

Question: And the clearance [4]?
Answer: Its clearance is 11 mL/min/kg.

Question: What about the inhibition at 1 µM [15] of the same compound?
Answer: Its inhibition at 1 µM is less than 53%.

Question: What about the inhibition at 1 µM [16] of the same compound?
Answer: The inhibition at 1 µM was less than 53%.

Question: And the Kp at 1 h [5]?
Answer: The Kp at 1 h was 0.03.

Question: What about the inhibition at 1 µM [17] of the same compound?
Answer: Its inhibition at 1 µM is less than 53%.

Question: And the inhibition at 1 µM [18]?
Answer: Its inhibition at 1 µM is less than 53%.

Question: What about the pKb [12] of the same compound?
Answer: The pKb was less than 5.

Question: What about the Vd [13] of the same compound?
Answer: Its Vd is 6.21 L/kg.

Question: What about the inhibition at 1 µM [19] of the same compound?
Answer: Its inhibition at 1 µM is less than 53%.

Question: And the pKb [14]?
Answer: Its pKb is 8.2.

Question: And the inhibition at 1 µM [20]?
Answer: The inhibition at 1 µM was less than 53%.

Question: What does the source list for `Cc1ccc(-c2ncccn2)c(C(=O)N2CC3(CC3)C[C@H]2CNc2cc(C(F)(F)F)ccn2)n1`?
Answer: inhibition at 1 µM [15]: < 39%; inhibition at 1 µM [16]: < 39%; inhibition at 1 µM [17]: < 39%; inhibition at 1 µM [18]: < 39%; Selectivity ratio [21]: > 100; pKb [12]: 8.1; inhibition at 1 µM [19]: < 39%; pKb [14]: 6; inhibition at 1 µM [20]: < 39%

Question: Which inhibition at 3 µM [1] does the source give for `Cc1nc(C(=O)N2CC3(CC3)C[C@H]2CNc2ccc(C(F)(F)F)cn2)c(-c2ccccc2)s1` here?
Answer: Its inhibition at 3 µM is less than 20%.

Question: And the inhibition at 3 µM [2]?
Answer: Its inhibition at 3 µM is less than 20%.

Question: What about the bioavailability [3] of the same compound?
Answer: Its bioavailability is 20%.

Question: And the clearance [4]?
Answer: The clearance was 55.2 mL/min/kg.

Question: What about the inhibition at 1 µM [15] of the same compound?
Answer: Its inhibition at 1 µM is less than 20%.

Question: And the inhibition at 1 µM [16]?
Answer: The inhibition at 1 µM was less than 20%.

Question: What about the Kp at 1 h [5] of the same compound?
Answer: Its Kp at 1 h is 0.6.

Question: And the inhibition at 1 µM [17]?
Answer: The inhibition at 1 µM was less than 20%.

Question: What about the inhibition at 3 µM [6] of the same compound?
Answer: The inhibition at 3 µM was less than 20%.

Question: And the inhibition at 3 µM [7]?
Answer: The inhibition at 3 µM was less than 20%.

Question: What about the “inhibition (INH)” value [8] of the same compound?
Answer: Its value is “Active”.

Question: And the IC50 [9]?
Answer: Its IC50 is greater than 100 µM.

Question: What about the inhibition at 1 µM [18] of the same compound?
Answer: Its inhibition at 1 µM is less than 20%.

Question: What about the inhibition at 3 µM [10] of the same compound?
Answer: Its inhibition at 3 µM is less than 20%.

Question: What about the inhibition at 3 µM [11] of the same compound?
Answer: The inhibition at 3 µM was less than 20%.

Question: What about the pKb [12] of the same compound?
Answer: The pKb was 7.7.

Question: And the Vd [13]?
Answer: Its Vd is 3 L/kg.

Question: What about the inhibition at 1 µM [19] of the same compound?
Answer: Its inhibition at 1 µM is less than 20%.

Question: What about the pKb [14] of the same compound?
Answer: Its pKb is 8.4.

Question: And the inhibition at 1 µM [20]?
Answer: Its inhibition at 1 µM is less than 20%.
